Calls of active or inactive are those of the source. The rule behind the calls is not given here.
Experiments:
[1] = molecular target: T1, 5-hydroxytryptamine receptor 2C (Homo sapiens, UniProt P28335); experiment: Displacement of [3H]mesulergine from human recombinant 5-HT2C receptor expressed in Flp-IN HEK cell membrane after 90 mins by scintillation counting method; assay type: cell membranes, HEK293
T1 sequence (P28335 whole entry): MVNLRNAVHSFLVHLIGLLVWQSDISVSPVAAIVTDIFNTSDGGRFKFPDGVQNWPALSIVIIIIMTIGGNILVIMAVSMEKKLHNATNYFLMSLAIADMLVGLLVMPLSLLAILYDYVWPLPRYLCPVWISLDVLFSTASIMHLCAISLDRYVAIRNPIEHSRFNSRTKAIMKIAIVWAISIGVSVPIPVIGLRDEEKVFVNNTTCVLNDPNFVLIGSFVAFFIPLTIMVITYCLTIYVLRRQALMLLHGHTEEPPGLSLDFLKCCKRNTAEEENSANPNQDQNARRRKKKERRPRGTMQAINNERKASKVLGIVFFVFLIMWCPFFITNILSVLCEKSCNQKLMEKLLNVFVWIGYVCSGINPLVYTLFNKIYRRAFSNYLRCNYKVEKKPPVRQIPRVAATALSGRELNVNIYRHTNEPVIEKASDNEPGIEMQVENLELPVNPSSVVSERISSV

[2] = molecular target: T2, 5-hydroxytryptamine receptor 2B (Homo sapiens, UniProt P41595); experiment: Displacement of [3H]LSD from human recombinant 5-HT2B receptor stably expressed in HEK cell membrane after 90 mins by scintillation counting method; assay type: cell membranes, HEK293
[3] = molecular target: T2, 5-hydroxytryptamine receptor 2B; experiment: Displacement of [3H]LSD from human recombinant 5-HT2B receptor stably expressed in HEK cell membrane at 10 uM after 90 mins by scintillation counting method; assay type: cell membranes; details: HEK293
[4] = molecular target: T3, 5-hydroxytryptamine receptor 2A (Homo sapiens, UniProt P28223); experiment: Displacement of [3H]ketanserin from human recombinant 5-HT2A receptor expressed in HEKT cell membrane after 90 mins by scintillation counting method; assay type: cell-based
[5] = molecular target: T2, 5-hydroxytryptamine receptor 2B; experiment: Agonist activity at human recombinant 5-HT2B receptor expressed in Flp-In HEK cells preincubated for 10 mins by FLIPR based calcium mobilization assay; assay type: functional, cell-based; details: HEK293
[6] = molecular target: T3, 5-hydroxytryptamine receptor 2A; experiment: Displacement of [3H]ketanserin from human recombinant 5-HT2A receptor expressed in HEKT cell membrane at 10 uM after 90 mins by scintillation counting method; assay type: cell membranes
[7] = molecular target: T2, 5-hydroxytryptamine receptor 2B; experiment: Antagonist activity at human recombinant 5-HT2B receptor expressed in Flp-In HEK cells in the presence of agonist preincubated for 10 mins by FLIPR based calcium mobilization assay; assay type: functional, cell-based, HEK293
HEK293 [8] = experiment: Selectivity ratio of Ki for human recombinant 5-HT2C receptor to Ki for human recombinant 5-HT2B receptor stably expressed in HEK cell membrane; assay type: cell-based
HEK293 [9] = experiment: Selectivity ratio of Ki for human recombinant 5-HT2A receptor expressed in HEKT cell membrane to Ki for human recombinant 5-HT2B receptor stably expressed in HEK cells; assay type: cell-based
[10] = molecular target: T4, 5-hydroxytryptamine receptor 2C (Homo sapiens) (UniProt P28335); experiment: Displacement of [3H]mesulergine from human recombinant 5-HT2C receptor expressed in Flp-IN HEK cell membrane at 10 uM after 90 mins by scintillation counting method; assay type: cell membranes; details: HEK293
T4 sequence (whole entry): T1 sequence (P28335 whole entry)

[11] = molecular target: T2, 5-hydroxytryptamine receptor 2B; experiment: Antagonist activity at human recombinant 5-HT2B receptor expressed in Flp-In HEK cells at 10 uM in the presence of agonist preincubated for 10 mins by FLIPR based calcium mobilization assay; assay type: functional, cell-based; details: HEK293

T2 sequence (P41595 whole entry): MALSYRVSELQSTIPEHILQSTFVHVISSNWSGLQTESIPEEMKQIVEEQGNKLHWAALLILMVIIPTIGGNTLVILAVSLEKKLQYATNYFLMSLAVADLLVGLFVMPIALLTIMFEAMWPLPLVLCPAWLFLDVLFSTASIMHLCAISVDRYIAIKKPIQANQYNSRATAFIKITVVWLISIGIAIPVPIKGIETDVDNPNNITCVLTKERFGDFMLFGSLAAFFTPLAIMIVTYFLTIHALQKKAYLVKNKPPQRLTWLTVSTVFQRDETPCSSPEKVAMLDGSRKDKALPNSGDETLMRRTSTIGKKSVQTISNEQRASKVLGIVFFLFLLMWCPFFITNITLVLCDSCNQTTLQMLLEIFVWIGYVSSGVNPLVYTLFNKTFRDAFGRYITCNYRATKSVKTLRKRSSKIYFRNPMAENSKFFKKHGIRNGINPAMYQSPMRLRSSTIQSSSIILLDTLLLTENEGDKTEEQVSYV
T3 sequence (P28223 whole entry): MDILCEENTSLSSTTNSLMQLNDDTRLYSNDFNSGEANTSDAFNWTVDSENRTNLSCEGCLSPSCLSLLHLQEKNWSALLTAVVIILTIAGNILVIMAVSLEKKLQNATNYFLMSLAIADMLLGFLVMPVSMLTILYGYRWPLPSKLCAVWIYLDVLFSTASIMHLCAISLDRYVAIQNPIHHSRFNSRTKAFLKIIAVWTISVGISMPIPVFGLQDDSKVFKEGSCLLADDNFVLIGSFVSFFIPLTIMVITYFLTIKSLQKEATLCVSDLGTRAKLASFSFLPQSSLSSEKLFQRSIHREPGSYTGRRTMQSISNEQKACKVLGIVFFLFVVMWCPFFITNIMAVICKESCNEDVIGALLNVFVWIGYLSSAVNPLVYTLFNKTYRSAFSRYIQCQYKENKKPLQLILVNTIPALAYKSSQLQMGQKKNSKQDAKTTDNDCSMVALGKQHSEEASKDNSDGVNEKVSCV

Compound	Ki ([1]; read-out: Ki) [µM]	Ki [2] [µM]	inhibition [3] [%]	Ki [4] [µM]	Activity [5]	Ki ([1]; hek293)	inhibition [6] [%]	IC50 [7] [µM]	Ratio Ki (HEK293 [8])	Ratio Ki (HEK293 [9])	inhibition [10] [%]	Activity [11]
Cc1nc2sccn2c(=O)c1CCN1CCC(=C(c2ccc(F)cc2)c2ccc(F)cc2)CC1 [RITANSERIN]	0.0018	–	–	–	–	–	–	–	–	–	–	–
COc1ccc(CCN(CCCc2cc(OC)c(OC)c(OC)c2)Cc2ccc3c(c2)OCO3)cc1OC	–	0.231	> 50	2.23	inactive	Not Active	> 50	12.6	–	–	–	–
COc1ccc(OC)c(CCCN(CCc2ccc(OC)c(OC)c2)CCc2ccc3c(c2)OCO3)c1	0.273	0.036	> 50	0.919	inactive	–	> 50	7.94	8	26	> 50	–
COc1ccc(CCN(CCc2ccc3c(c2)OCO3)Cc2ccccc2)cc1OC	1.09	0.059	> 50	3.53	inactive	–	> 50	–	19	60	> 50	–
COc1ccc(CCN(CC/C=C\c2ccccc2)Cc2ccc3c(c2)OCO3)cc1OC	0.241	0.021	> 50	0.226	inactive	–	> 50	6.31	12	11	> 50	–
COc1cccc(CCCN(CCc2ccc(OC)c(OC)c2)Cc2ccc3c(c2)OCO3)c1	0.103	0.059	> 50	1.51	inactive	–	> 50	–	2	26	> 50	inactive
Cn1ccc2cc3c(cc21)CCN3C(=O)Nc1cccnc1	–	0.021	–	–	–	–	–	–	–	–	–	–
COc1ccc(CCN(CCCc2cc(OC)c(OC)c(OC)c2)CCc2ccc3c(c2)OCO3)cc1OC	0.194	0.0041	> 50	0.146	inactive	–	> 50	1.26	47	36	> 50	–
COc1ccccc1CCCN(CCc1ccc(OC)c(OC)c1)CCc1ccc2c(c1)OCO2	0.123	0.0058	> 50	0.14	inactive	–	> 50	10	21	24	> 50	–
COc1ccc(CCN(CCc2ccccc2)CCc2ccc3c(c2)OCO3)cc1OC	0.69	0.017	> 50	1.47	inactive	–	> 50	10	41	87	> 50	–
COc1ccc(CCCN(CCc2ccc(OC)c(OC)c2)CCc2ccc3c(c2)OCO3)cc1	0.206	0.0068	> 50	0.267	inactive	–	> 50	3.98	30	39	> 50	–
COc1cccc(CCCN(CCc2ccc(OC)c(OC)c2)CCc2ccc3c(c2)OCO3)c1	0.108	0.0046	> 50	0.2	inactive	–	> 50	1.26	24	43	> 50	–

From ChEMBL document CHEMBL3734659, “Identification of tris-(phenylalkyl)amines as new selective h5-HT2Breceptor antagonists” (Medchemcomm, 2015)
